# Measured values as given in patent publication US20130102595A1 (Curis, Inc., priority 2011, published 2013).
# pIC50: −log10 of the molar value.
# Key:
# [1] = tested on: HDACs (HeLa cell nuclear extracts); assay: HDAC enzymatic activity, Biomol Color de Lys system; assay type: biochemical; conditions: 1 hour, 25° C.
# Method in brief: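 IC50 from sigmoidal fit of developer-terminated fluorescence (ex 350-380/em 440-460 nm). Reaction: 1 h at room temperature (25 °C), HeLa nuclear extract as HDAC source, artificial substrate, buffer of 50 mM Tris/Cl pH 8.0 with 137 mM NaCl, 2.7 mM KCl and 1 mM MgCl2.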
# [2] = biological target: T1, PI3Kα (p110α/p85α) (Homo sapiens, UniProt P42336); assay: PI3Kα ADP-Glo assay; assay type: biochemical; conditions: 20 μM PIP2, 10 μM ATP, 30 minutes
# T1 construct: GST (N); made in house; host or cells: Baculovirus-infected Sf9 cells
# Method in brief: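 Luminescent ADP-Glo detection, after depletion of residual ATP, quantified ADP made by PI3Kα phosphorylating 20 μM PIP2 at 10 μM ATP. The kinase step ran 30 min at room temperature in HEPES pH 7.4 with MgCl2, DTT and orthovanadate, using baculovirus/Sf9-expressed full-length p110α/p85α complex.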
# T1 sequence (P42336 whole entry): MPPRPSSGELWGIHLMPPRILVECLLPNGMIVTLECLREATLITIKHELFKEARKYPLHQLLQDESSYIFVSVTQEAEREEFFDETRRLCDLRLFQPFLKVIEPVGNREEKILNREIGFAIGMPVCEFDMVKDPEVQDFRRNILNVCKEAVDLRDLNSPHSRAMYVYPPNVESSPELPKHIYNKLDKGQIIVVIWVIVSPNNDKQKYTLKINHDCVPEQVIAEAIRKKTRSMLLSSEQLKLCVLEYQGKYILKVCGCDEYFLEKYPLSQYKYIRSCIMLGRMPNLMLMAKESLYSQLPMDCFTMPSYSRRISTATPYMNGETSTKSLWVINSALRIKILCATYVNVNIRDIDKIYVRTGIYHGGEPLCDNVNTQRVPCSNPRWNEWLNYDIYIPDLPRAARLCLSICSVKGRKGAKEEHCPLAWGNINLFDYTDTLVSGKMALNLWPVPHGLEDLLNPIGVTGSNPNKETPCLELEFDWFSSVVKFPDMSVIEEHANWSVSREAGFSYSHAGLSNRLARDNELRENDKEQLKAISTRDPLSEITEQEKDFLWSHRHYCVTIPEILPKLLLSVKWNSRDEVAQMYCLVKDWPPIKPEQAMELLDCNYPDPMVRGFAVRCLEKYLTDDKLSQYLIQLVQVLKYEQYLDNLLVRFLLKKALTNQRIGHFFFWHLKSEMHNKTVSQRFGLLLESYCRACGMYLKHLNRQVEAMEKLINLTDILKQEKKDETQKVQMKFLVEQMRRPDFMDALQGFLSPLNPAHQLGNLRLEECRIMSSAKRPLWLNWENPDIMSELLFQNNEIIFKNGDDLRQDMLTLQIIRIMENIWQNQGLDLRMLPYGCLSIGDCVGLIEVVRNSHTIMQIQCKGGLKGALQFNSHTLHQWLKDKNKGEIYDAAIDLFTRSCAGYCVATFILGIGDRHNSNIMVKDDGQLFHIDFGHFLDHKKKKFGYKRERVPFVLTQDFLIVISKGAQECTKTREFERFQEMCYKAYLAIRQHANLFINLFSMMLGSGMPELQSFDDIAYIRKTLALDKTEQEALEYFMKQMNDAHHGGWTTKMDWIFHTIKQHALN
# T1 sequence (P27986 whole entry partner): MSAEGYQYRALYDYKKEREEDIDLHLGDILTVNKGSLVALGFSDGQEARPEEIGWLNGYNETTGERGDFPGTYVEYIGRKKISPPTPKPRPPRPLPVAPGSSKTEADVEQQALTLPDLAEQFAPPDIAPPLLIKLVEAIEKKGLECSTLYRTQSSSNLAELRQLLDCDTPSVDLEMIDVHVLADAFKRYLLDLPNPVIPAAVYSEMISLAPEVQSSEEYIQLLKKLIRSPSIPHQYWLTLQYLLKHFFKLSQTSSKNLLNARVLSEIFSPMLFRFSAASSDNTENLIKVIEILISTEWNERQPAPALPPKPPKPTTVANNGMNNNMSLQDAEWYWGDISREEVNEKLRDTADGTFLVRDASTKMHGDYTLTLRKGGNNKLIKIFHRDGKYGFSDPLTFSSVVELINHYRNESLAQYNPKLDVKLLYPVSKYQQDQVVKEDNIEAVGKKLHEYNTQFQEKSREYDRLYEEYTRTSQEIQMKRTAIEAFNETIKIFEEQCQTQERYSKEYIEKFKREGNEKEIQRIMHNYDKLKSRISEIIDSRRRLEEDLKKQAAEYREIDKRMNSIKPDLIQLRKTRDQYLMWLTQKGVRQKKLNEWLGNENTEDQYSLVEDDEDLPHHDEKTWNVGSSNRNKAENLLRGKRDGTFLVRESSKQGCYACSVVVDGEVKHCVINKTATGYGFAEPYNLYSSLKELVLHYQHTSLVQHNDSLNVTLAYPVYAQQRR
structure (smiles),measurement,setting,value
Nc1ncc(-c2nc(N3CCOCC3)c3sc(NCCCCC(=O)NO)cc3n2)cn1 [Compound 226],pIC50,[1],> 7.00
same,pIC50,[2],> 7.00
same,melting point,,175 to 180 °C
"CNc1ncc(-c2nc(N3CCOCC3)c3sc(NCCCCC(=O)NO)cc3n2)cn1 [Compound 227, N-Hydroxy-5-(2-(2-(methylamino)pyrimidin-5-yl)-4-morpholinothieno[3,2-d]pyrimidin-6-ylamino)pentanamide]",pIC50,[1],> 7.00
same,pIC50,[2],> 7.00
same,melting point,,206 to 210 °C
"Cc1ncc(-c2nc(N3CCOCC3)c3sc(NCCCCC(=O)NO)cc3n2)cn1 [Compound 229, N-Hydroxy-5-(2-(2-methylpyrimidin-5-yl)-4-morpholinothieno[3,2-d]pyrimidin-6-ylamino)pentanamide]",pIC50,[1],> 7.00
same,pIC50,[2],> 7.00
same,melting point,,248 to 252 °C
"Nc1ncc(-c2nc(N3CCOCC3)c3sc(NCCCCCC(=O)NO)cc3n2)cn1 [Compound 232, 6-[2-(2-Amino-pyrimidin-5-yl)-4-morpholin-4-yl-thieno[3,2-d]pyrimidin-6-ylamino]-hexanoic acid hydroxyamide]",pIC50,[1],> 7.00
same,pIC50,[2],> 7.00
same,melting point,,220 to 225 °C
"COc1ccc(-c2nc(N3CCOCC3)c3sc(NCCCCCC(=O)NO)cc3n2)cn1 [Compound 233, 6-[2-(6-Methoxy-pyridin-3-yl)-4-morpholin-4-yl-thieno[3,2-d]pyrimidin-6-ylamino]-hexanoic acid hydroxyamide]",pIC50,[1],> 7.00
same,pIC50,[2],> 7.00
same,melting point,,125 to 130 °C
"Nc1ncc(-c2nc(N3CCOCC3)c3sc(NCCCCCCC(=O)NO)cc3n2)cn1 [Compound 234, 7-[2-(2-Amino-pyrimidin-5-yl)-4-morpholin-4-yl-thieno[3,2-d]pyrimidin-6-ylamino]-heptanoic acid hydroxyamide]",pIC50,[1],> 7.00
same,pIC50,[2],> 7.00
same,melting point,,235 to 240 °C
"CNc1ccc(-c2nc(N3CCOCC3)c3sc(C(C)N(C)c4ncc(C(=O)NO)cn4)cc3n2)cn1 (stereo not drawn) [Compound 237, N-Hydroxy-2-(methyl(1-(2-(6-(methylamino)pyridin-3-yl)-4-morpholinothieno[3,2-d]pyrimidin-6-yl)ethyl)amino)pyrimidine-5-carboxamide]",pIC50,[1],> 7.00
same,pIC50,[2],> 7.00
same,melting point,,270 to 275 °C
"CNc1ccc(-c2nc(N3CCOCC3)c3sc(C(C)(C)Nc4ncc(C(=O)NO)cn4)cc3n2)cn1 [Compound 240, N-Hydroxy-2-(2-(2-(6-(methylamino)pyridin-3-yl)-4-morpholinothieno[3,2-d]pyrimidin-6-yl)propan-2-ylamino)pyrimidine-5-carboxamide]",pIC50,[1],> 7.00
same,pIC50,[2],> 7.00
same,melting point,,200 to 205 °C
"COc1ccc(-c2nc(N3CCOCC3)c3sc(C(C)(C)N(C)c4ncc(C(=O)NO)cn4)cc3n2)cn1 [Compound 251, N-Hydroxy-2-((2-(2-(6-methoxypyridin-3-yl)-4-morpholinothieno[3,2-d]pyrimidin-6-yl)propan-2-yl)(methyl)amino)pyrimidine-5-carboxamide]",pIC50,[1],> 7.00
same,pIC50,[2],5.00 to 6.00
same,melting point,,175 to 178 °C
"COc1ccc(-c2nc(N3CCOCC3)c3sc(S(=O)(=O)Nc4ncc(C(=O)NO)cn4)cc3n2)cn1 [Compound 252, 2-[2-(6-Methoxy-pyridin-3-yl)-4-morpholin-4-yl-thieno[3,2-d]pyrimidine-6-sulfonylamino]-pyrimidine-5-carboxylic acid hydroxyamide]",pIC50,[1],> 7.00
same,pIC50,[2],> 7.00
same,melting point,,259 to 265 °C
"CCOc1ccc(-c2nc(N3CCOCC3)c3sc(CN(C)c4ncc(C(=O)NO)cn4)cc3n2)cn1 [Compound 255, 2-(((2-(6-ethoxypyridin-3-yl)-4-morpholinothieno[3,2-d]pyrimidin-6-yl)methyl)(methyl)amino)-N-hydroxypyrimidine-5-carboxamide]",pIC50,[1],> 7.00
same,pIC50,[2],> 7.00
same,melting point,,162 to 165 °C
"CN(C)CCOc1ccc(-c2nc(N3CCOCC3)c3sc(CN(C)c4ncc(C(=O)NO)cn4)cc3n2)cn1 [Compound 257, 2-(((2-(6-(2-(Dimethylamino)ethoxy)pyridin-3-yl)-4-morpholinothieno[3,2-d]pyrimidin-6-yl)methyl)(methyl)amino)-N-hydroxypyrimidine-5-carboxamide]",pIC50,[1],> 7.00
same,pIC50,[2],< 5.00
same,melting point,,140 to 143 °C
"CNCCOc1ccc(-c2nc(N3CCOCC3)c3sc(CN(C)c4ncc(C(=O)NO)cn4)cc3n2)cn1 [Compound 258, N-Hydroxy-2-(methyl((2-(6-(2-(methylamino)ethoxy)pyridin-3-yl)-4-morpholinothieno[3,2-d]pyrimidin-6-yl)methyl)amino)pyrimidine-5-carboxamide]",pIC50,[1],> 7.00
same,pIC50,[2],< 5.00
same,melting point,,170 to 175 °C
"CN(Cc1cc2nc(-c3ccc(OCCN)nc3)nc(N3CCOCC3)c2s1)c1ncc(C(=O)NO)cn1 [Compound 259, 2-(((2-(6-(2-Aminoethoxy)pyridin-3-yl)-4-morpholinothieno[3,2-d]pyrimidin-6-yl)methyl)(methyl)amino)-N-hydroxypyrimidine-5-carboxamide]",pIC50,[1],> 7.00
same,pIC50,[2],< 5.00
same,melting point,,110 to 115 °C
"COc1ncc(-c2nc(N3CCOCC3)c3sc(C(C)N(C)c4ncc(C(=O)NO)cn4)cc3n2)cn1 (stereo not drawn) [Compound 262, N-Hydroxy-2-((1-(2-(2-methoxypyrimidin-5-yl)-4-morpholinothieno[3,2-d]pyrimidin-6-yl)ethyl)(methyl)amino)pyrimidine-5-carboxamide]",pIC50,[1],> 7.00
same,pIC50,[2],> 7.00
same,melting point,,210 to 215 °C
"COc1ncc(-c2nc(N3CCOCC3)c3sc(C(C)(C)Nc4ncc(C(=O)NO)cn4)cc3n2)cn1 [Compound 263, N-Hydroxy-2-(2-(2-(2-methoxypyrimidin-5-yl)-4-morpholinothieno[3,2-d]pyrimidin-6-yl)propan-2-ylamino)pyrimidine-5-carboxamide]",pIC50,[1],> 7.00
same,pIC50,[2],> 7.00
same,melting point,,202 to 207 °C
"Nc1ccc(-c2nc(N3CCOCC3)c3sc(S(=O)(=O)Nc4ncc(C(=O)NO)cn4)cc3n2)cc1 [Compound 271, 2-[2-(4-Amino-phenyl)-4-morpholin-4-yl-thieno[3,2-d]pyrimidine-6-sulfonylamino]-pyrimidine-5-carboxylic acid hydroxyamide]",pIC50,[1],> 7.00
same,pIC50,[2],> 7.00
same,melting point,,197 to 205 °C
"CN(Cc1cc2nc(-c3ccc(N)c(Cl)c3)nc(N3CCOCC3)c2s1)c1ncc(C(=O)NO)cn1 [Compound 275, 2-(((2-(4-Amino-3-chlorophenyl)-4-morpholinothieno[3,2-d]pyrimidin-6-yl)methyl)(methyl)amino)-N-hydroxypyrimidine-5-carboxamide]",pIC50,[1],> 7.00
same,pIC50,[2],6.00 to 7.00
same,melting point,,241 to 246 °C
"CN(Cc1cc2nc(-c3ccc(N)c(F)c3)nc(N3CCOCC3)c2s1)c1ncc(C(=O)NO)cn1 [Compound 276, 2-(((2-(4-Amino-3-fluorophenyl)-4-morpholinothieno[3,2-d]pyrimidin-6-yl)methyl)(methyl)amino)-N-hydroxypyrimidine-5-carboxamide]",pIC50,[1],> 7.00
same,pIC50,[2],> 7.00
same,melting point,,203 to 206 °C
"CN(Cc1cc2nc(-c3ccc(N)c([N+](=O)[O-])c3)nc(N3CCOCC3)c2s1)c1ncc(C(=O)NO)cn1 [Compound 278, 2-(((2-(4-Amino-3-nitrophenyl)-4-morpholinothieno[3,2-d]pyrimidin-6-yl)methyl)(methyl)amino)-N-hydroxypyrimidine-5-carboxamide]",pIC50,[1],> 7.00
same,pIC50,[2],> 7.00
same,melting point,,202 to 206 °C
"CN(Cc1cc2nc(-c3ccc(N)c(O)c3)nc(N3CCOCC3)c2s1)c1ncc(C(=O)NO)cn1 [Compound 279, 2-(((2-(4-Amino-3-hydroxyphenyl)-4-morpholinothieno[3,2-d]pyrimidin-6-yl)methyl)(methyl)amino)-N-hydroxypyrimidine-5-carboxamide]",pIC50,[1],> 7.00
same,pIC50,[2],> 7.00
same,melting point,,214 to 218 °C
"CN(Cc1cc2nc(-c3ccc(N)c(C#N)c3)nc(N3CCOCC3)c2s1)c1ncc(C(=O)NO)cn1 [Compound 280, 2-(((2-(4-Amino-3-cyanophenyl)-4-morpholinothieno[3,2-d]pyrimidin-6-yl)methyl)(methyl)amino)-N-hydroxypyrimidine-5-carboxamide]",pIC50,[1],> 7.00
same,pIC50,[2],6.00 to 7.00
same,melting point,,237 to 240 °C
"CC(=O)c1cc(-c2nc(N3CCOCC3)c3sc(CN(C)c4ncc(C(=O)NO)cn4)cc3n2)ccc1N [Compound 281, 2-{[2-(3-Acetyl-4-amino-phenyl)-4-morpholin-4-yl-thieno[3,2-d]pyrimidin-6-ylmethyl]-methyl-amino}-pyrimidine-5-carboxylic acid hydroxyamide]",pIC50,[1],> 7.00
same,pIC50,[2],6.00 to 7.00
same,melting point,,156 to 158 °C
"CN(Cc1cc2nc(-c3cc(F)c(N)c(F)c3)nc(N3CCOCC3)c2s1)c1ncc(C(=O)NO)cn1 [Compound 282, 2-(((2-(4-Amino-3,5-difluorophenyl)-4-morpholinothieno[3,2-d]pyrimidin-6-yl)methyl)(methyl)amino)-N-hydroxypyrimidine-5-carboxamide]",pIC50,[1],> 7.00
same,pIC50,[2],6.00 to 7.00
same,melting point,,190 to 193 °C
